Legend:
VIOTR = test: Herbicidal pre-emergence action 2a (greenhouse pots, visual scoring); type: in vivo, Viola tricolor; conditions: dosage 320 g/ha, visual scoring after about 3 weeks vs untreated controls
Summary of the method: (§1)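 Weed and crop seeds placed in pots and covered with soil; aqueous suspension or emulsion of WP/EC formulation applied to the soil surface before emergence (600 l/ha, 0.5% additive, 320 and/or 80 g/ha). Pots kept in the greenhouse about 3 weeks; visual percentage scoring.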

POLCO = test: Herbicidal post-emergence action 1a (greenhouse pots, visual rating); type: in vivo, Polygonum convolvulus; conditions: visual rating about 3 weeks after treatment
Summary of the method: (§2)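 Weeds and crops sown in sandy loam in greenhouse pots were sprayed post-emergence at the one-leaf stage (2–3 weeks after sowing) with WP or EC formulations plus 0.5% additive at 600 l/ha water, 320 and/or 80 g/ha. About 3 weeks later damage was rated visually against untreated controls (0% = no effect, 100% = dead).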

DIGSA [1] = test: Herbicidal pre-emergence action 2a (greenhouse pots, visual scoring); type: in vivo, Digitaria sanguinalis; conditions: dosage 320 g/ha, visual scoring after about 3 weeks
Summary of the method: as §1

DIGSA [2] = test: Herbicidal post-emergence action 1a (greenhouse pots, visual rating); type: in vivo, Digitaria sanguinalis; conditions: rated visually about 3 weeks after treatment, 100% = plants have died, 0% = like control plants
Summary of the method: as §2

harmful plants = test: Herbicidal post-emergence action 1a, summary across species; type: in vivo; conditions: Tables A1 to A15 (320 g/ha and/or 80 g/ha)
Method: a) Seeds of monocotyledonous and dicotyledonous weeds and crop plants are placed in sandy loam in plastic or organic plant pots, covered with soil and cultivated in a greenhouse under controlled growth conditions. 2 to 3 weeks after sowing, the test plants are treated at the one-leaf stage. The compounds of the invention, formulated in the form of wettable powders (WP) or as emulsion concentrates (EC), are then sprayed onto the green parts of the plants as aqueous suspension or emulsion with addition of 0.5% additive at a water application rate of 600 1/ha (converted). After the test plants have been kept in the greenhouse under optimum growth conditions for about 3 weeks, the activity of the preparations is rated visually in comparison to untreated controls. For example, 100% activity=the plants have died, 0% activity=like control plants.
Tables A1 to A15 below show the effects of selected compounds of the general formula (I) according to Tables 1 and 2 on various harmful plants and an application rate corresponding to 320 g/ha and/or 80 g/ha, which were obtained by the experimental procedure mentioned above.
For example, compound nos. I-05, I-07, I-08, I-10, I-12, I-16, I-17, I-22, I-36, I-37, I-39 and I-40 in the post-emergence method have very good action (80% to 100% herbicidal activity) against harmful plants such as Alopecurus myosuroides, Amaranthus retroflexus, Avena fatua, Lolium rigidum, Polygonum convolvulus, Setaria viridis, Veronica persica and Viola tricolor at an application rate of 0.32 kg of active substance per hectare.

ABUTH = test: Herbicidal post-emergence action 1a (greenhouse pots, visual rating); type: in vivo, Abutilon theophrasti; conditions: visual rating about 3 weeks after treatment
Summary of the method: as §2

SETVI [3] = test: Herbicidal pre-emergence action 2a (greenhouse pots, visual scoring); type: in vivo, Setaria viridis; conditions: dosage 320 g/ha, visual scoring after about 3 weeks vs untreated controls
Summary of the method: as §1

SETVI [4] = test: Herbicidal post-emergence action 1a (greenhouse pots, visual rating); type: in vivo, Setaria viridis; conditions: rated visually about 3 weeks after treatment, 100% = plants have died, 0% = like control plants
Summary of the method: as §2

PHBPU = test: as above; type: in vivo, Pharbitis purpurea; conditions: visual rating about 3 weeks after treatment
Summary of the method: as §2

ECHCG = test: as above; type: in vivo, Echinochloa crus-galli; conditions: rated visually about 3 weeks after treatment, 100% = plants have died, 0% = like control plants
Summary of the method: as §2

DIGSA [5] = test: Herbicidal post-emergence action 1b (twin sowing, 1280 g/ha); type: in vivo, Digitaria sanguinalis; conditions: dosage 1280 g/ha, visual rating about 3 weeks after treatment
Summary of the method: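 Sow paired weed species in sandy loam pots and grow in the greenhouse; at the one-leaf stage (2–3 weeks) spray green parts with compound suspension or emulsion containing 0.5% additive at 600 L water/ha; keep about 3 weeks, then score damage visually relative to untreated plants.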

| SMILES | Pre-emergence action against VIOTR in % (VIOTR) | Post-emergence action against POLCO in % (POLCO; dosage 80 g/ha) | Pre-emergence action against DIGSA in % (DIGSA [1]) | Post-emergence action against DIGSA in % (DIGSA [2]; Dosage 80 g/ha) | Post-emergence action against DIGSA in % (DIGSA [2]; Dosage 320 g/ha) | herbicidal efficacy against harmful plants in the case of post-emergence treatment (in words) (harmful plants) | Post-emergence action against ABUTH in % (ABUTH; dosage 320 g/ha) | Pre-emergence action against SETVI in % (SETVI [3]) | Post-emergence action against SETVI in % (SETVI [4]; Dosage 320 g/ha) | Post-emergence action against PHBPU in % (PHBPU; dosage 80 g/ha) | Post-emergence action against PHBPU in % (PHBPU; dosage 320 g/ha) | Post-emergence action against POLCO in % (POLCO; dosage 320 g/ha) | Post-emergence action against ABUTH in % (ABUTH; dosage 80 g/ha) | Post-emergence action against ECHCG in % (ECHCG; Dosage 80 g/ha) | Post-emergence action against ECHCG in % (ECHCG; Dosage 320 g/ha) | Post-emergence action against SETVI in % (SETVI [4]; Dosage 80 g/ha) | Post-emergence action at 1280 g/ha against DIGSA in % (DIGSA [5]) |
| --- | --- | --- | --- | --- | --- | --- | --- | --- | --- | --- | --- | --- | --- | --- | --- | --- | --- |
| COC(=O)C(C)Oc1nn(-c2cnccn2)c(-c2ccnc(F)c2)c1Cl (racemic) [Example I-05] | 100% | 80% | 100% | 80% | 90% | good herbicidal efficacy | 80% | 90% | 80% | – | – | – | – | – | – | – | – |
| COC(=O)C(C)Oc1nn(-c2cnccn2)c(-c2cncc(F)c2)c1Br (racemic) [Example I-08] | 100% | – | 100% | – | 80% | good herbicidal efficacy | 90% | 100% | 80% | 80% | 90% | 100% | 80% | 80% | 90% | 80% | – |
| COC(=O)C(C)Oc1nn(-c2cnccn2)c(-c2ccnc(F)c2)c1Br (racemic) [Example I-10] | 80% | – | 100% | – | 80% | good herbicidal efficacy | – | 100% | 80% | – | – | – | – | – | – | – | – |
| COC(=O)C(C)Oc1nn(-c2cnccn2)c(-c2ccc(F)nc2)c1Br (racemic) [Example I-12] | 100% | – | 100% | – | 80% | good herbicidal efficacy | 80% | 100% | 80% | 80% | 90% | 90% | – | – | 80% | – | – |
| COC(=O)C(C)Oc1nn(-c2cnccn2)c(-c2ccc(F)c(F)c2)c1Br (racemic) [Example I-16] | 100% | – | 100% | – | 90% | good herbicidal efficacy | 80% | 100% | 90% | – | 90% | 90% | – | – | 90% | 80% | – |
| COC(=O)C(C)Oc1nn(-c2cnccn2)c(-c2ccc(F)c(F)c2)c1C#N (racemic) [Example I-22] | 90% | – | 100% | – | 80% | good herbicidal efficacy | – | 100% | 80% | 80% | 90% | 80% | – | – | – | 80% | – |
| CCOC(=O)COc1nn(-c2cnccn2)c(-c2ccccc2)c1Br [Example I-01] | – | 80% | 90% | – | 80% | good herbicidal efficacy | 80% | – | – | 80% | 80% | 80% | – | – | 90% | – | – |
| COC(=O)COc1nn(-c2cnccn2)c(-c2cncc(F)c2)c1Br [Example I-07] | 100% | 80% | 100% | 80% | 90% | good herbicidal efficacy | 90% | 100% | 80% | 90% | 90% | 90% | 80% | 80% | 90% | 80% | – |
| COC(=O)COc1nn(-c2cnccn2)c(-c2ccc(F)c(F)c2)c1Br [Example I-15] | 100% | – | 100% | – | 90% | good herbicidal efficacy | 80% | 100% | 90% | 90% | 90% | – | 80% | – | 90% | 90% | – |
| COC(=O)[C@@H](C)Oc1nn(-c2cnccn2)c(-c2cccc(F)c2)c1Br [Example I-20] | 90% | – | 100% | 80% | 90% | good herbicidal efficacy | 90% | 100% | 90% | – | 90% | 80% | 80% | – | 80% | 80% | – |
| COC(=O)[C@@H](C)Oc1nn(-c2cnccn2)c(-c2ccc(F)c(F)c2)c1C#N [Example I-46] | 100% | – | 100% | – | – | – | – | 100% | – | – | – | 100% | – | – | – | – | 100% |
| C[C@@H](Oc1nn(-c2cnccn2)c(-c2cccc(F)c2)c1Br)C(=O)O [Example I-48] | 100% | – | 100% | – | – | – | – | 100% | – | – | – | 100% | – | 90% | – | 80% | – |
| CCOC(=O)COc1nn(-c2cnccn2)c(-c2ccc(F)nc2)c1Br [Example I-52, ethyl {[4-bromo-5-(6-fluoropyridin-3-yl)-1-(pyrazin-2-yl)-1H-pyrazol-3-yl]oxy}acetate] | 90% | – | 100% | – | – | – | 80% | 90% | – | 80% | – | 80% | – | – | 80% | – | – |
